Structures can show the parent of a compound that is named as a salt. Where two headings read alike, the source gives them in different places.
How the values were obtained:
[1] = Threshold solubility of salt screen 96 well plate; details: salt screen well: 1 Equivalent of Acid, DI water
Method: Following each addition, the plate was shaken to encourage mixing for at least 5 minutes prior to evaluation.

[2] = Solubility in DI water and pH 2.0 phosphate buffer; format: physicochemical
Method: The table below summarizes additional characterization data for the fumaric and maleate KX2-391.MSA salts and compares it to free base, bis-HCl, and MSA salts described above. The results in the table below were obtained using the procedures described above in Examples 5 (XRPD), 6 (DSC), 7 (TGA), and 8 (moisture-sorption).
Solubility experiments were also performed using pH 2.0 phosphate buffer and DI water pH 6.9 and KX2-391.MSA, Form A. Each vial was filled with approximately 50 mg of KX2-391.MSA, Form A and 100 μL aliquots of the corresponding solvent was added until complete dissolution was observed, followed by stirring at room temperature for one and five days. The solids obtained were isolated by filtration, dried under vacuum at room temperature and analyzed by HPLC. The initial HPLC purity of KX2-391.MSA, Form A was 99.4 (% area). The solubility by HPLC of KX2-391.MSA, Form A in phosphate buffer/RT was >500 mg/mL and HPLC purity was measured to be 99.4. The solubility by HPLC of KX2-391.MSA, Form A in DI H2O/RT was >500 mg/mL and HPLC purity was measured to be 99.4.

Thermal stress = format: physicochemical; details: 60° C., one week
Method: Thermal stress experiments were performed on KX2-391.MSA, Form A. Each 1-dram amber vial was filled with approximately 20 mg of KX2-391.MSA, Form A capped and stored in a vacuum over at 60° C. for one week. The resulting solids were analyzed by XRPD and HPLC.

[3] = Moisture-sorption analysis (Hiden IGAsorp); format: physicochemical; details: for Moisture Sorption Wt % Water @ 90% RH: mesylate
Method: Moisture-sorption experiments were performed using a Hiden IGAsorp Moisture Sorption instrument on KX2-391.MSA obtained in accordance with the process of the present invention (Example 4). First, the sample was dried at 0% Relative Humidity (RH) and 25° C. until an equilibrium weight was reached or for a maximum of four hours. The sample was then subjected to an isothermal (25° C.) adsorption scan from 10 to 90% RH in steps of 10%. The sample was allowed to equilibrate to an asymptotic weight at each point for a maximum of four hours. Following adsorption, a desorption scan from 85 to 0% RH (at 25° C.) was run in steps of −10% again allowing a maximum of four hours for equilibration to an asymptotic weight. The sample was then dried for one hour at 80° C. and the resulting solid analyzed by XRPD. […] FIG. 10 depicts percent change of water content as a function of relative humidity for KX2-391.MSA, Form A.
Moisture-sorption experiments were performed using a Hiden IGAsorp Moisture Sorption Instrument on KX2-391.2HCl obtained in accordance with the process of the present invention (Example 3). First, the sample was dried at 0% Relative Humidity (RH) and 25° C. until an equilibrium weight was reached or for a maximum of four hours. The sample was then subjected to an isothermal (25° C.) adsorption scan from 10 to 90% RH in steps of 10%. The sample was allowed to equilibrate to an asymptotic weight at each point for a maximum of four hours. Following adsorption, a desorption scan from 85 to 0% RH (at 25° C.) was run in steps of −10% again allowing a maximum of four hours for equilibration to an asymptotic weight. The sample was then dried for one hour at 80° C. and the resulting solid analyzed by XRPD.

O=C(Cc1ccc(-c2ccc(OCCN3CCOCC3)cc2)cn1)NCc1ccccc1 [KX2-391.MSA, 2-(5-(4-(2-morpholinoethoxy)phenyl)pyridine-2-yl)-N-benzylacetamide mesylate]
Threshold solubility rank ([1]; Acetone): 1
Threshold solubility rank ([1]; Dioxane): 1
Threshold solubility rank ([1]; THF): 1
pH of solubility sample [2]: 4.6
HPLC purity after solubility experiment ([2]; pH 2): 99.4 % area
Solubility mg/mL ([2]; pH 2): pH 2: >500 mg/mL
pH of solubility sample ([2]; pH 2): (4.3)
solubility ([2]; pH 2, aqueous buffer, thermodynamic from solid): > 500 mg/mL
HPLC purity after solubility experiment ([2]; pH 6.9): 99.4 % area
solubility ([2]; pH 6.9): > 500 mg/mL
solubility ([2]; pH 6.9, water, thermodynamic from solid): > 500 mg/mL
HPLC purity after thermal stress (Thermal stress): 99.3%
XRPD of solid after thermal stress (Thermal stress): consistent with the pattern of the initial KX2-391.MSA, Form A
hygroscopicity by moisture sorption analysis ([3]; 25° C., adsorption scan 10 to 90% RH): slightly-hygroscopic
water absorbed at 60% RH ([3]; 60% RH, 25° C.): 1.1 wt %
Moisture Sorption Wt % Water @ 90% RH ([3]; 25° C., listed as MSA): 5.7 wt %
Moisture Sorption Wt % Water @ 90% RH ([3]; 25° C.): 5.7 wt %
XRPD pattern of material resulting from the moisture sorption experiment ([3]; after adsorption/desorption scans and drying one hour at 80° C.): consistent with the starting form

Source: patent publication US10323001B2, “Compositions for modulating a kinase cascade and methods of use thereof” (Athenex, Inc., priority 2006, dated 2019)
